Laboratory results: article PMC3207004 (Clinical cancer research : an official journal of the …, 2011)
Entries after “also recorded” stand apart in the source; their conditions may differ.

Key:
[1] = test system: advanced solid tumors and lymphomas; assay: Assessment of response; format: in vivo, human
[2] = Plasma pharmacokinetics of PF-04928473 after oral PF-04929113; format: in vivo, human; details: patients
[3] = test system: Hsp70 levels in peripheral blood mononuclear cells (PBMCs); assay: Hsp70 induction in peripheral blood by western blot; format: in vivo, human
[4] = Continuous EKG monitoring, corrected QT interval; format: in vivo, human; details: days 1 and 15 of cycle 1
[5] = Comprehensive ophthalmologic evaluation of patients on study; format: in vivo, human
[6] = human, in vivo

With `CC1(C)CC(=O)c2c(C(F)(F)F)nn(-c3ccc(C(N)=O)c(N[C@H]4CC[C@H](OC(=O)CN)CC4)c3)c2C1` [PF-04929113] the “Median duration of disease stabilization” value ([1]; 15 patients) was 16 weeks, the Objective responses ([1]; 32 evaluable patients) was “no objective tumor responses” and the “Anti-tumor activity as a single-agent” value ([1]; twice weekly continuous dosing) was “modest anti-tumor activity”. The “Absorption following oral administration” value [2] was “rapidly absorbed”, the “Dose at or above which an increase in Hsp70 levels was seen in all patients” value ([3]; PBMCs) was no less than 33 mg/m^2/day and the “Patients with increased Hsp70 protein level at day 15 and/or day 16” value ([3]; PBMCs, compared to baseline) was 16 out of 19. For the same molecule, the “Relation of Hsp70 induction to PK parameters (Cmax and AUCinf of each cohort)” value ([3]; fold increase at 24h versus baseline) was “linear correlation”, the “Inhibition of Hsp90 in patients (PD studies)” value ([3]; in vivo) was “confirmed inhibition of Hsp90” and the “lowest biologically effective dose” value ([3]; orally twice weekly, based on PD data) was 33 mg/m^2. For the same molecule, the “Level of Hsp70 induction as a function of dose” value ([3]; ≤ 44 vs > 44 mg/m^2/dose) was “greater at higher dose levels”, the “Effect on the corrected QT interval” value [4] was “did not reveal any effect” and the “Drug-related ocular toxicity in this study” value ([5]; oral twice weekly) was “no clinically significant drug-related ocular toxicity was seen in this study”. For the same molecule, the “Ocular examination findings in single patients” value ([5]; three patients at 77, 133 and 177 mg/m^2, after 8, 10 and 28 cycles) was “slightly prolonged cone-rod break in the right eye but the ERG was normal; also recorded: normal eye exam; also recorded: slightly prolonged cone-rod break in one patient”, the “ALT elevation, Grade 1” value [6] was 5 (15) Number of patients (%) and the “ALT elevation, Grade 2” value [6] was 1 (3) Number of patients (%). For the same molecule, the “ALT elevation, Grade 3” value [6] was 0 Number of patients (%), the “ALT elevation, Grade 4” value [6] was 0 Number of patients (%) and the “AST elevation, Grade 1” value [6] was 3 (9) Number of patients (%). For the same molecule, the “AST elevation, Grade 2” value [6] was 2 (6) Number of patients (%), the “AST elevation, Grade 3” value [6] was 1 (3) Number of patients (%) and the “AST elevation, Grade 4” value [6] was 0 Number of patients (%). For the same molecule, the “Abdominal pain, Grade 1” value [6] was 1 (3) Number of patients (%), the “Abdominal pain, Grade 2” value [6] was 0 Number of patients (%) and the “Abdominal pain, Grade 3” value [6] was 0 Number of patients (%). The “Abdominal pain, Grade 4” value [6] was 0 Number of patients (%), the “Alkaline phosphatase elevation, Grade 1” value [6] was 0 Number of patients (%) and the “Alkaline phosphatase elevation, Grade 2” value [6] was 2 (6) Number of patients (%). The “Alkaline phosphatase elevation, Grade 3” value [6] was 0 Number of patients (%), the “Alkaline phosphatase elevation, Grade 4” value [6] was 0 Number of patients (%) and the “Anemia, Grade 1” value [6] was 2 (6) Number of patients (%). The “Anemia, Grade 2” value [6] was 3 (9) Number of patients (%), the “Anemia, Grade 3” value [6] was 0 Number of patients (%) and the “Anemia, Grade 4” value [6] was 0 Number of patients (%). For the same molecule, the “Anorexia, Grade 1” value [6] was 2 (6) Number of patients (%), the “Anorexia, Grade 2” value [6] was 1 (3) Number of patients (%) and the “Anorexia, Grade 3” value [6] was 0 Number of patients (%). For the same molecule, the “Anorexia, Grade 4” value [6] was 0 Number of patients (%), the “Arthritis (non-septic), Grade 1” value [6] was 0 Number of patients (%) and the “Arthritis (non-septic), Grade 2” value [6] was 1 (3) Number of patients (%). For the same molecule, the “Arthritis (non-septic), Grade 4” value [6] was 0 Number of patients (%), the “Constipation, Grade 1” value [6] was 1 (3) Number of patients (%) and the “Constipation, Grade 2” value [6] was 0 Number of patients (%). For the same molecule, the “Constipation, Grade 3” value [6] was 0 Number of patients (%), the “Constipation, Grade 4” value [6] was 0 Number of patients (%) and the “Cough, Grade 1” value [6] was 1 (3) Number of patients (%). For the same molecule, the “Cough, Grade 2” value [6] was 0 Number of patients (%), the “Cough, Grade 3” value [6] was 0 Number of patients (%) and the “Cough, Grade 4” value [6] was 0 Number of patients (%). For the same molecule, the “Creatinine phosphokinase elevation, Grade 1” value [6] was 1 (3) Number of patients (%), the “Creatinine phosphokinase elevation, Grade 2” value [6] was 0 Number of patients (%) and the “Creatinine phosphokinase elevation, Grade 3” value [6] was 0 Number of patients (%). For the same molecule, the “Creatinine phosphokinase elevation, Grade 4” value [6] was 0 Number of patients (%), the “Diarrhea, Grade 1” value [6] was 4 (12) Number of patients (%) and the “Diarrhea, Grade 2” value [6] was 0 Number of patients (%). The “Diarrhea, Grade 3” value [6] was 3 (9) Number of patients (%), the “Diarrhea, Grade 4” value [6] was 0 Number of patients (%) and the “Dose Level at which grade 3 AST elevation occurred” value [6] was 77 mg/m^2. The “Dose Level at which grade 3 Non-septic arthritis occurred” value [6] was 16 mg/m^2, the “Dose Level at which grade 3 Thrombocytopenia occurred” value [6] was 177 mg/m^2 and the “Dysgeusia, Grade 1” value [6] was 1 (3) Number of patients (%). The “Dysgeusia, Grade 2” value [6] was 1 (3) Number of patients (%), the “Dysgeusia, Grade 3” value [6] was 0 Number of patients (%) and the “Dysgeusia, Grade 4” value [6] was 0 Number of patients (%). For the same molecule, the “Dyspepsia, Grade 1” value [6] was 1 (3) Number of patients (%), the “Dyspepsia, Grade 2” value [6] was 0 Number of patients (%) and the “Dyspepsia, Grade 3” value [6] was 0 Number of patients (%). The “Dyspepsia, Grade 4” value [6] was 0 Number of patients (%), the “Edema, Grade 1” value [6] was 0 Number of patients (%) and the “Edema, Grade 2” value [6] was 1 (3) Number of patients (%).
